Target: T1, human Nav1.8 (hNav1.8) ion channel (Homo sapiens, UniProt Q9Y5Y9)
T1 construct: expressed in transfected cells; host or cells: HEK293
T1 sequence (Q9Y5Y9 whole entry): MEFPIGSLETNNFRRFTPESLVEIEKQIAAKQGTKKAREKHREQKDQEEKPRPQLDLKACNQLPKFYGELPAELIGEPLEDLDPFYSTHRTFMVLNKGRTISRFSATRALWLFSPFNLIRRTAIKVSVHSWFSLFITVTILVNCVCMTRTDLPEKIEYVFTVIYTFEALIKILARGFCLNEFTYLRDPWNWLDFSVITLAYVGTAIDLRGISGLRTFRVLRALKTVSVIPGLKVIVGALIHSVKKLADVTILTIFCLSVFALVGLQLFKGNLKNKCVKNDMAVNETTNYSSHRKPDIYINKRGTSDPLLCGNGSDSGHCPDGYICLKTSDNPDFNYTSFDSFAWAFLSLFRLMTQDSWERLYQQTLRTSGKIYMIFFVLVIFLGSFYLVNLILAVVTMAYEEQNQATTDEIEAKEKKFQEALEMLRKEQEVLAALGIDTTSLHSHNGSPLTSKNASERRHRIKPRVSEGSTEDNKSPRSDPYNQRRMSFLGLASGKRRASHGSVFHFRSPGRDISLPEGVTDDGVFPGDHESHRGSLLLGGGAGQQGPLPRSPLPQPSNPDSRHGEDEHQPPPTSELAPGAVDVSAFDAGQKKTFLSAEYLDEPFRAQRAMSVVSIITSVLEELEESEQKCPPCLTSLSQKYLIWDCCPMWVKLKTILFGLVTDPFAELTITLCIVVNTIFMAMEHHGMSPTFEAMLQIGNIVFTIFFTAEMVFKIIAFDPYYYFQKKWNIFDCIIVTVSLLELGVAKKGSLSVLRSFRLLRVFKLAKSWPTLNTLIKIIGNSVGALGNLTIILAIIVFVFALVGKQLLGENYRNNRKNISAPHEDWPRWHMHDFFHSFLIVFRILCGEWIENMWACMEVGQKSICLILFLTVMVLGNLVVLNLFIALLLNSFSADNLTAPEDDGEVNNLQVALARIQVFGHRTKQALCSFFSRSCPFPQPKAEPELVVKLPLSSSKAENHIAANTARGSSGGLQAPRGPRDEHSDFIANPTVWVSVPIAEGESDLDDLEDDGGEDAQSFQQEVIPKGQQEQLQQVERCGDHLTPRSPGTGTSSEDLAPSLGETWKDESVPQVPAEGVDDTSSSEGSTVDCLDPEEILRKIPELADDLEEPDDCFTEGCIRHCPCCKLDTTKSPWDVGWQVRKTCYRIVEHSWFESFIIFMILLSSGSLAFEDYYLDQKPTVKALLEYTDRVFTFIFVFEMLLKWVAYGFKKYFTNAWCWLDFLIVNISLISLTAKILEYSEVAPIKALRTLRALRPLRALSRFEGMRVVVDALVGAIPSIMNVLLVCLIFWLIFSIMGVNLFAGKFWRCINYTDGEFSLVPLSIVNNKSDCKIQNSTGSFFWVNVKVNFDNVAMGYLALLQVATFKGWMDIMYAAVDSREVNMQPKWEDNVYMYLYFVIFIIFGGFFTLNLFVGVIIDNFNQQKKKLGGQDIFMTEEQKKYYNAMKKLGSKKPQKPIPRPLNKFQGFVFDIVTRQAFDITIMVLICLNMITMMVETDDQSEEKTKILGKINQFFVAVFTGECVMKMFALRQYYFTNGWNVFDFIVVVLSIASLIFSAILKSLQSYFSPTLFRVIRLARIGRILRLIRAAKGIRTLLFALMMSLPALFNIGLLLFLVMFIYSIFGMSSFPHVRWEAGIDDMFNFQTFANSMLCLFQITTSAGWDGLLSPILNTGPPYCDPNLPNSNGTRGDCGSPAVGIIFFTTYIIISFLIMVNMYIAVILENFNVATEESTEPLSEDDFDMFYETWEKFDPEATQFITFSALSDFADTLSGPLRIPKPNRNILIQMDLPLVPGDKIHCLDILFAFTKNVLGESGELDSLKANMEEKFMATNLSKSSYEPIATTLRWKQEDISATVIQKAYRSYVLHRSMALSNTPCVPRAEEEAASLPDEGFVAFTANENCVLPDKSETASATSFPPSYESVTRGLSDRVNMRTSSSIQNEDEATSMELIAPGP
Assay: Nav1.8 channel inhibition, estimated IC50 (one or more of: fluorescence inhibition assay, PatchXpress, IonFlux HT automated patch clamp)
Format: cell-based
Conditions: HEK293 cells stably expressing hNav1.8; method used per compound not stated; read-out: Activity range (estimated IC50)
Method in brief: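 HEK293 cells stably expressing hNav1.8 with β1/β2 subunits; IC50 from the fluorescence assay and/or automated whole-cell patch clamp (PatchXpress, IonFlux HT). Fluorescence: ANG-2 Na dye, 5 min compound preincubation (0.02–5 μM, 1% DMSO) with 30 μM ouabain, stimulation by 10 μM deltamethrin, peak signal fit logistically. PatchXpress: holding potential reset to Vhalf, inhibition normalized to control/washout currents.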
For CCCc1ccccc1Oc1ncc(C(F)(F)F)cc1C(=O)Nc1cccc(S(C)(=O)=O)c1 [Example 24, N-(3-methylsulfonylphenyl)-2-(2-propylphenoxy)-5-(trifluoromethyl)pyridine-3-carboxamide], the IC50 was greater than 1000 nM.
Compound CS(=O)(=O)c1cccc(NC(=O)c2cc(C(F)(F)F)cnc2Oc2ccc(F)cc2)c1 [Example 34, 2-(4-fluorophenoxy)-N-(3-methylsulfonyl-phenyl)-5-(trifluoromethyl)pyridine-3-carboxamide] has an IC50 greater than 1000 nM.
Compound NC(=O)c1cccc(NC(=O)c2cc(C(F)(F)F)cnc2Oc2ccc(OC(F)(F)F)cc2Cl)c1 [Example 148, N-(3-carbamoylphenyl)-2-[2-chloro-4-(trifluoromethoxy)phenoxy]-5-(trifluoromethyl)pyridine-3-carboxamide] has an IC50 of 500 to 1000 nM.
O=C(Nc1ccc[n+]([O-])c1)c1cc(C(F)(F)F)cnc1Oc1ccc(OC(F)(F)F)cc1 [Example 132, N-(1-oxidopyridin-1-ium-3-yl)-2-[4-(trifluoromethoxy)phenoxy]-5-(trifluoromethyl)pyridine-3-carboxamide] showed an IC50 of less than 500 nM.
Work on COc1ccc(Oc2ncc(C(F)(F)F)cc2C(=O)Nc2ccnnc2)c(OC)c1 [Example 173, 2-(2,4-dimethoxyphenoxy)-N-pyridazin-4-yl-5-(trifluoromethyl)pyridine-3-carboxamide] yielded an IC50 greater than 1000 nM.
Compound COc1cc(F)ccc1Oc1ncc(C(F)(F)F)cc1C(=O)Nc1cccc(S(C)(=N)=O)c1 (stereo not drawn) [Example 14, 2-(4-fluoro-2-methoxy-phenoxy)-N-[3-(methylsulfonimidoyl)phenyl]-5-(trifluoromethyl)pyridine-3-carboxamide] has an IC50 of less than 500 nM.
For CS(=O)(=O)c1cccc(NC(=O)c2cc(C(F)(F)F)cnc2Oc2ccccc2C(F)(F)F)c1 [Example 53, N-(3-methylsulfonyl-phenyl)-5-(trifluoromethyl)-2-[2-(trifluoromethyl)phenoxy]pyridine-3-carboxamide], the IC50 was less than 500 nM.
CS(=O)(=O)c1cccc(NC(=O)c2cc(C(F)(F)F)cnc2Oc2ccc(F)cc2F)c1 [Example 48, 2-(2,4-difluorophenoxy)-N-(3-methylsulfonyl-phenyl)-5-(trifluoromethyl)pyridine-3-carboxamide] showed an IC50 of less than 500 nM.
With CS(=N)(=O)c1cccc(NC(=O)c2cnc(C(F)(F)F)cc2Oc2ccc(OC(F)(F)F)cc2)c1 (stereo not drawn) [Example 91, N-[3-(methylsulfonimidoyl)phenyl]-4-[4-(trifluoromethoxy)phenoxy]-6-(trifluoromethyl)pyridine-3-carboxamide] the IC50 was less than 500 nM.
In the case of Cn1cc(NC(=O)c2cc(C(F)(F)F)cnc2Oc2ccc(OC(F)(F)F)cc2Cl)cn1 [Example 147, 2-[2-chloro-4-(trifluoromethoxy)phenoxy]-N-(1-methylpyrazol-4-yl)-5-(trifluoromethyl)pyridine-3-carboxamide], the IC50 is reported as less than 500 nM.
For COc1ccc(Oc2cc(C(F)(F)F)ncc2C(=O)Nc2ccc[n+]([O-])c2)c(OC)c1 [Example 88, 4-(2,4-dimethoxyphenoxy)-N-(1-oxidopyridin-1-ium-3-yl)-6-(trifluoromethyl)pyridine-3-carboxamide], the IC50 was less than 500 nM.
Compound Cc1cc(OC(F)(F)F)ccc1Oc1ncc(C(F)(F)F)cc1C(=O)Nc1cccc(S(C)(=O)=O)c1 [Example 37, N-(3-methylsulfonyl-phenyl)-2-[2-methyl-4-(trifluoromethoxy)phenoxy]-5-(trifluoromethyl)pyridine-3-carboxamide] has an IC50 of less than 500 nM.
Work on COc1cc(F)ccc1Oc1nc(C)c(C)cc1C(=O)Nc1cccc(S(C)(=O)=O)c1 [Example 118, 2-(4-fluoro-2-methoxy-phenoxy)-5,6-dimethyl-N-(3-methylsulfonylphenyl)pyridine-3-carboxamide] yielded an IC50 of less than 500 nM.
Work on O=C(Nc1ccnnc1)c1cnc(C(F)(F)F)cc1Oc1ccc(F)cc1F [Example 100, 4-(2,4-difluorophenoxy)-N-pyridazin-4-yl-6-(trifluoromethyl)pyridine-3-carboxamide] yielded an IC50 greater than 1000 nM.
CN=S(C)(=O)c1cccc(NC(=O)c2cnc(C(F)(F)F)cc2Oc2ccc(F)cc2C)c1 (stereo not drawn) [Example 94, N-[3-(N,S-dimethylsulfonimidoyl)phenyl]-4-(4-fluoro-2-methyl-phenoxy)-6-(trifluoromethyl)pyridine-3-carboxamide] showed an IC50 of less than 500 nM.
Cc1cc(F)ccc1Oc1ncc(C(F)(F)F)cc1C(=O)Nc1cccc(S(C)(=O)=O)c1 [Example 113, 2-(4-fluoro-2-methyl-phenoxy)-N-(3-methylsulfonylphenyl)-5-(trifluoromethyl)pyridine-3-carboxamide] gave an IC50 of 500 to 1000 nM.
CS(=O)(=O)c1cccc(NC(=O)c2cc(C(F)(F)F)cnc2Oc2ccc(OC(F)(F)F)cc2)c1 [Example 38, N-(3-methylsulfonyl-phenyl)-2-[4-(trifluoromethoxy)phenoxy]-5-(trifluoromethyl)pyridine-3-carboxamide] showed an IC50 of less than 500 nM.
COc1cc(F)ccc1Oc1ncc(C(F)(F)F)cc1C(=O)Nc1nc2ccccc2s1 [Example 11, N-(1,3-benzothiazol-2-yl)-2-(4-fluoro-2-methoxy-phenoxy)-5-(trifluoromethyl)pyridine-3-carboxamide] gave an IC50 greater than 1000 nM.
Compound COc1cc(F)ccc1Oc1ncc(C(F)(F)F)cc1C(=O)Nc1cccc(N=S(C)(C)=O)c1 [Example 20, N-[3-[[dimethyl(oxo)-λ^6-sulfanylidene]amino]phenyl]-2-(4-fluoro-2-methoxy-phenoxy)-5-(trifluoromethyl)pyridine-3-carboxamide] has an IC50 greater than 1000 nM.
Compound CN(C)S(=O)(=O)c1cccc(NC(=O)c2cc(C(F)(F)F)cnc2Oc2ccc(OC(F)(F)F)cc2Cl)c1 [Example 154, 2-[2-chloro-4-(trifluoromethoxy)phenoxy]-N-[3-(dimethylsulfamoyl)phenyl]-5-(trifluoromethyl)pyridine-3-carboxamide] has an IC50 greater than 1000 nM.
Work on COc1cc(F)ccc1Oc1ncc(C(F)(F)F)cc1C(=O)Nc1cccc(-c2cnco2)c1 [Example 9, 2-(4-fluoro-2-methoxy-phenoxy)-N-(3-oxazol-5-ylphenyl)-5-(trifluoromethyl)pyridine-3-carboxamide] yielded an IC50 greater than 1000 nM.
Work on CS(=N)(=O)c1cccc(NC(=O)c2cc(C(F)(F)F)cnc2Oc2ccc(OC(F)F)cc2)c1 (stereo not drawn) [Example 59, 2-[4-(difluoromethoxy)phenoxy]-N-[3-(methylsulfonimidoyl)phenyl]-5-(trifluoromethyl)pyridine-3-carboxamide] yielded an IC50 of less than 500 nM.
With O=C(Nc1ccnnc1)c1cc(C(F)(F)F)cnc1Oc1ccc(OC(F)F)cc1 [Example 64, 2-[4-(difluoromethoxy)phenoxy]-N-pyridazin-4-yl-5-(trifluoromethyl)pyridine-3-carboxamide] the IC50 was greater than 1000 nM.
With O=C(Nc1ccc(F)c(F)c1)c1cc(C(F)(F)F)cnc1Oc1ccc(OC(F)(F)F)cc1Cl [Example 155, 2-[2-chloro-4-(trifluoromethoxy)phenoxy]-N-(3,4-difluorophenyl)-5-(trifluoromethyl)pyridine-3-carboxamide] the IC50 was less than 500 nM.
Compound COc1cc(C)ccc1Oc1ncc(C(F)(F)F)cc1C(=O)Nc1cccc(S(C)(=O)=O)c1 [Example 25, 2-(2-methoxy-4-methyl-phenoxy)-N-(3-methylsulfonylphenyl)-5-(trifluoromethyl)pyridine-3-carboxamide] has an IC50 greater than 1000 nM.
In the case of CN=S(C)(=O)c1cccc(NC(=O)c2cc(C(F)(F)F)cnc2Oc2ccc(OC)cc2OC)c1 (stereo not drawn) [Example 171, 2-(2,4-dimethoxyphenoxy)-N-[3-(N,S-dimethylsulfonimidoyl)phenyl]-5-(trifluoromethyl)pyridine-3-carboxamide], the IC50 is reported as less than 500 nM.
Cc1cc(F)ccc1Oc1cc(C(F)(F)F)ncc1C(=O)Nc1ccc[n+]([O-])c1 [Example 85, 4-(4-fluoro-2-methyl-phenoxy)-N-(1-oxidopyridin-1-ium-3-yl)-6-(trifluoromethyl)pyridine-3-carboxamide] showed an IC50 of 500 to 1000 nM.

Target: T2, Nav 1.8 (Mus musculus, UniProt Q6QIY3)
T2 construct: host or cells: mouse, in vivo
T2 sequence (Q6QIY3 whole entry): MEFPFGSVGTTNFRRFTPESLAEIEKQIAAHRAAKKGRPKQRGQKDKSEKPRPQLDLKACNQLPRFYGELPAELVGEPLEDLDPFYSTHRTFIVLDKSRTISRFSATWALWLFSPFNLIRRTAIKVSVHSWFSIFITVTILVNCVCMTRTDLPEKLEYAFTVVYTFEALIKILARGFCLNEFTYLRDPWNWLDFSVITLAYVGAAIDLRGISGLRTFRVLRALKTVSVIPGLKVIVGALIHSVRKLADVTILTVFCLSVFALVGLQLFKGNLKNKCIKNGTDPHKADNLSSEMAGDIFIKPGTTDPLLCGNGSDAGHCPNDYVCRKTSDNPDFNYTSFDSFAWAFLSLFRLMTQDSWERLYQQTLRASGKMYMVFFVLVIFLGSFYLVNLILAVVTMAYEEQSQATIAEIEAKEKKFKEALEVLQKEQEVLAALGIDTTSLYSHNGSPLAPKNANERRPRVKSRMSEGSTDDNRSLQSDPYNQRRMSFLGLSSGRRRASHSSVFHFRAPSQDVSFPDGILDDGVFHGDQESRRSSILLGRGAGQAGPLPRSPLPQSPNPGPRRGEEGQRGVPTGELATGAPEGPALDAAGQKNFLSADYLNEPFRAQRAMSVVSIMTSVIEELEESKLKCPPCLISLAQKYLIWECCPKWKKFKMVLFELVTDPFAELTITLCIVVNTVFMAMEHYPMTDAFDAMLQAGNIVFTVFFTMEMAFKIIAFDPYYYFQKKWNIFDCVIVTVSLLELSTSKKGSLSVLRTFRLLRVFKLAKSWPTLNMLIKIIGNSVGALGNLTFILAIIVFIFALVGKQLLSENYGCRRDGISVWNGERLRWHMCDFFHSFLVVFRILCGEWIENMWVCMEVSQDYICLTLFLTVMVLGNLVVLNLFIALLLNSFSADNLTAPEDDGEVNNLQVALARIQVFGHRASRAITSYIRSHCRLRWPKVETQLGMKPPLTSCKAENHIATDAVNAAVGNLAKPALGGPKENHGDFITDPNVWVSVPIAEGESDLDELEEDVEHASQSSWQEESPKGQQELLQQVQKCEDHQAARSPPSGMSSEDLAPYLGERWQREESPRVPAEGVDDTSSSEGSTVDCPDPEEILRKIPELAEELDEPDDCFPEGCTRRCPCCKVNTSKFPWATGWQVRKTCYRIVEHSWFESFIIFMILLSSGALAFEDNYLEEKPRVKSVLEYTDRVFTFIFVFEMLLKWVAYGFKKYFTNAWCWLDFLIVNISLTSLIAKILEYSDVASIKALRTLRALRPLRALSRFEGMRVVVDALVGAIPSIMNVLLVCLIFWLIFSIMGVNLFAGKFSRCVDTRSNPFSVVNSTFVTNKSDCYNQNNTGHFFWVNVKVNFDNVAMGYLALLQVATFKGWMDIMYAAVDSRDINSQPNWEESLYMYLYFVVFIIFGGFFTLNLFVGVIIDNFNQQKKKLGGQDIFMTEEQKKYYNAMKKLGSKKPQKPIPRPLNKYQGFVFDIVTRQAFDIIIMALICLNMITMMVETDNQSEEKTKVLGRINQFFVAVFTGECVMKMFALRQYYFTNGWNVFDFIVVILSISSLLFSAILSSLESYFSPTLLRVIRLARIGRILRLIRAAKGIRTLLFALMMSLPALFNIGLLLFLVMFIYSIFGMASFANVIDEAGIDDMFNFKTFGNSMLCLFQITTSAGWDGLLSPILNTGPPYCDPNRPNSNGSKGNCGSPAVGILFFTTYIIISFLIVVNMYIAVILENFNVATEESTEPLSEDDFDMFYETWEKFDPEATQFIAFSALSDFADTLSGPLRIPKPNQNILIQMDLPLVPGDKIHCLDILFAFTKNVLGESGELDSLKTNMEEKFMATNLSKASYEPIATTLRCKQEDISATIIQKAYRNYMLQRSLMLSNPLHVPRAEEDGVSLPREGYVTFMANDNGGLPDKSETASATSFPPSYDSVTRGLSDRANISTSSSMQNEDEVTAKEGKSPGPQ
Assay: not given
Conditions: mouse model of MS; cited from earlier work
For CNC(=O)c1ccc(-c2cc(Cl)cc(Cl)c2Cl)c(N)n1 [PF 01247324, N-methyl-6-amino-5-(2,3,5-trichlorophenyl)pyridine-2-carboxamide], the “effect on cerebellar deficits” value is listed as “reverses cerebellar deficits”.

Test system: Nav 1.8
Assay: not given
Conditions: PTHS models (ex vivo cell model, rodent models); cited from earlier work
In the case of COc1cc(NC(=O)c2ccc(-c3ccc(Cl)cc3)o2)cc(OC)c1 [Example A-803467, 5-4(-chlorophenyl)-N-(3,5-dimethoxyphenyl)furan-2-carboxamide], the “effect on excitability phenotypes” value is given as “can rapidly reverse some of the excitability phenotypes”.
In the case of COc1ccc(Cl)c(-c2ccc(NC(=O)c3ccnn3C)nc2N)c1 [PF 4531083, N-[6-amino-5-(2-chloro-5-methoxyphenyl)pyridin-2-yl]-1-methyl-1H-pyrazole-5-carboxamide], the “effect on excitability phenotypes” value is given as “can rapidly reverse some of the excitability phenotypes”.
